Here are results for 17 compounds from patent publication US20260092061A1, “COMPOUNDS FOR TARGETED PROTEIN DEGRADATION” (Amphista Therapeutics Limited, priority 2022, published 2026).

Bounds are passed on as bounds.

The test addresses T1, BRD9 (Homo sapiens, UniProt Q9H8M2).
T1 sequence (Q9H8M2 1-597): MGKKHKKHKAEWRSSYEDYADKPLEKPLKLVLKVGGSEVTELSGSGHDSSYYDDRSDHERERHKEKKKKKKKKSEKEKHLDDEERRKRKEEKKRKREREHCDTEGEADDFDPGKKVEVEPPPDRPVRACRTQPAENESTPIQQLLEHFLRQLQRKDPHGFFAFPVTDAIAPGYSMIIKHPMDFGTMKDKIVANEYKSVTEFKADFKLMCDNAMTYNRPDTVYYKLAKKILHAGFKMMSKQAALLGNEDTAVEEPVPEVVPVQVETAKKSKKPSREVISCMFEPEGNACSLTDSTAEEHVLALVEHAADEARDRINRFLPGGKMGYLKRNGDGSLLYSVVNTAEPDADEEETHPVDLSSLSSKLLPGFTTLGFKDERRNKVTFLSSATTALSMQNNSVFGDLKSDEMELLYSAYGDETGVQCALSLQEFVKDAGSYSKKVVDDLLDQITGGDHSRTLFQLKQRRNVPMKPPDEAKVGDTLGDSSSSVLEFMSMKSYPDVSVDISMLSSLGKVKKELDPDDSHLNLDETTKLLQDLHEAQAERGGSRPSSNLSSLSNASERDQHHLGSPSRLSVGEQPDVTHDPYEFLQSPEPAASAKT
The test is described as follows: Degradation of BRD9 (IF), immunofluorescence in MV4-11 cells, 24 hours (Assay Protocol 2). The note with it: BRD9 degradation; for DC50: Assay protocol 2, read-out: DC50; for Dmax: MV4-11, Assay protocol 2, read-out: Dmax. Details: A suspension of MV4-11 cells (ATCC CRL-9591) was prepared; host or cells: MV4-11. It is filed as cell-based. A digest of the protocol: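 MV4-11 cells treated with compound 24 h at 37° C., then fixed, permeabilised and immunostained for BRD9 (anti-BRD9 E4Q3F, Alexa 647 secondary, Hoechst counterstain). High-content imaging quantified nuclear BRD9 signal; % BRD9 remaining normalised to DMSO and 100 nM CFT-8634 controls.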

Usually DC50 stands for the midpoint of the concentration-degradation curve. Usually Dmax stands for the greatest extent of degradation seen. As to `COc1cc(-c2cn(C)c(=O)c(C)c2C)cc(OC)c1CN1CCN(Cc2ccc3c(c2)[C@@H](C)N(C(=O)/C(C#N)=C/C(C)(C)CF)CC3)C2(CC2)C1` (single isomer, unassigned) [Compound B202, (E/Z)-2-(7-((7-(2,6-dimethoxy-4-(1,4,5-trimethyl-6-oxo-1,6-dihydropyridin-3-yl)benzyl)-4,7-diazaspiro[2.5]octan-4-yl)methyl)-1-methyl-1,2,3,4-tetrahydroisoquinoline-2-carbonyl)-5-fluoro-4,4-dimethylpent-2-enenitrile], the DC50 was < 1.25 nM and the Dmax was > 75%.
On the same counts, the results for `COc1cc(-c2cn(C)c(=O)c(C)c2C)cc(OC)c1CN1CCN(Cc2ccc3c(c2)C(C)N(C(=O)/C(C#N)=C/C(C)(C)CCl)CC3)C2(CC2)C1` (single isomer, unassigned) [Compound B203, (E/Z)-5-chloro-2-(7-((7-(2,6-dimethoxy-4-(1,4,5-trimethyl-6-oxo-1,6-dihydropyridin-3-yl)benzyl)-4,7-diazaspiro[2.5]octan-4-yl)methyl)-1-methyl-1,2,3,4-tetrahydroisoquinoline-2-carbonyl)-4,4-dimethylpent-2-enenitrile] are 1.25 to 10 nM and > 75%.
Take `COc1cc(-c2cn(C)c(=O)c(C)c2C)cc(OC)c1CN1CCN(Cc2ccc3c(c2)[C@H](C)N(C(=O)/C(C#N)=C/C(C)(C)C)CC3)[C@H](C)C1` (single isomer, unassigned) [Compound C3]: the 50% degradation concentration (DC50) lay within 25 to 1000 nM and the Dmax lay in the range of 40 to 70%.
On to `COc1cc(-c2cn(C)c(=O)c(C)c2C)cc(OC)c1CN1CCN(Cc2cccc3c2CCN(C(=O)/C(C#N)=C/C(C)(C)C)[C@H]3C)CC12CC2` (single isomer, unassigned) [Compound C4, (E/Z)-2-(5-((4-(2,6-dimethoxy-4-(1,4,5-trimethyl-6-oxo-1,6-dihydropyridin-3-yl)benzyl)-4,7-diazaspiro[2.5]octan-7-yl)methyl)-1-methyl-1,2,3,4-tetrahydroisoquinoline-2-carbonyl)-4,4-dimethylpent-2-enenitrile], for which the 50% degradation concentration (DC50) was in the range of 1.25 to 10 nM and the Dmax was > 75%.
`COc1cc(-c2cn(C)c(=O)c(C)c2C)cc(F)c1CN1CCN(Cc2ccc3c(c2)[C@@H](C)N(C(=O)/C(C#N)=C/C(C)(C)C)CC3)C2(CC2)C1` (single isomer, unassigned) [Compound C5, (E/Z)-2-(7-((7-(2-fluoro-6-mehtoxy-4-(1,4,5-trimethyl-6-oxo-1,6-dihydropyridin-3-yl)benzyl)-4,7-diazaspiro[2.5]octan-4-yl)methyl)-1-methyl-1,2,3,4-tetrahydroisoquinoline-2-carbonyl)-4,4-dimethylpent-2-enenitrile]: the half-maximal degradation concentration (DC50) lay in the range of 10 to 25 nM and the maximal degradation (Dmax) is > 75%.
In the same order, the values of `COc1cc(-c2cn(C)c(=O)c3[nH]ncc23)cc(OC)c1CN1CCN(Cc2ccc3c(c2)[C@@H](C)N(C(=O)/C(C#N)=C/C(C)(C)C)CC3)C2(CC2)C1` (single isomer, unassigned) [Compound C6, (E/Z)-2-(7-((7-(2,6-dimethoxy-4-(6-methyl-7-oxo-6,7-dihydro-1H-pyrazolo[3,4-c]pyridin-4-yl)benzyl)-4,7-diazaspiro[2.5]octan-4-yl)methyl)-1-methyl-1,2,3,4-tetrahydroisoquinoline-2-carbonyl)-4,4-dimethylpent-2-enenitrile] are < 1.25 nM and > 75%.
In the same order, the values of `COc1cc(-c2cn(C)c(=O)c(C)c2C)cc(OC)c1CN1CCCN(Cc2cccc3c2CCN(C(=O)/C(C#N)=C/C(C)(C)CF)[C@@H]3C)CC1` (single isomer, unassigned) [Compound C19] are 1.25 to 10 nM and > 75%.
In the same order, the values of `COc1cc(-c2cn(C)c(=O)c(C)c2C)cc(OC)c1CN1CCN(Cc2cccc3c2CCN(C(=O)/C(C#N)=C/C(C)(C)F)[C@@H]3C)C2(CC2)C1` (single isomer, unassigned) [Compound C20, (E/Z)-2-(5-((7-(2,6-dimethoxy-4-(1,4,5-trimethyl-6-oxo-1,6-dihydropyridin-3-yl)benzyl)-4,7-diazaspiro[2.5]octan-4-yl)methyl)-1-methyl-1,2,3,4-tetrahydroisoquinoline-2-carbonyl)-4-fluoro-4-methylpent-2-enenitrile] are < 1.25 nM and > 75%.
Consider `COc1cc(-c2cn(C)c(=O)c(C)c2C)cc(OC)c1CN1CCN(Cc2cccc3c2CCN(C(=O)/C(C#N)=C\C(C)(C)CF)C3C(C)C)[C@@H](C)C1` (single isomer, unassigned) [Compound C26], for which the DC50 lay within 10 to 25 nM and the greatest degradation seen (Dmax) was > 75%.
As for `COc1cc(-c2cn(C)c(=O)c(C)c2C)ccc1OC1CCN(Cc2cccc3c2CCN(C(=O)/C(C#N)=C/C(C)(C)C)[C@H]3C)CC1` (single isomer, unassigned) [Compound C31, (E/Z)-2-(5-((4-(2-methoxy-4-(1,4,5-trimethyl-6-oxo-1,6-dihydropyridin-3-yl)phenoxy)piperidin-1-yl)methyl)-1-methyl-1,2,3,4-tetrahydroisoquinoline-2-carbonyl)-4,4-dimethylpent-2-enenitrile], the half-maximal degradation concentration (DC50) fell in the range of 1.25 to 10 nM and the Dmax is > 75%.
For `COc1cc(-c2cn(C)c(=O)c(C)c2C)cc(OC)c1CN1CCN(Cc2ccc3c(c2)[C@H](C)N(C(=O)/C(C#N)=C/C(C)(C)CF)CC3)CC12CC2` (single isomer, unassigned) [Compound C33], the DC50 was 1.25 to 10 nM and the greatest degradation seen (Dmax) was > 75%.
As to `COc1cc(-c2cn(C)c(=O)c(C)c2C)cc(OC)c1CN1CCN(Cc2ccc3c(c2)[C@@H](C)N(C(=O)/C(C#N)=C/C(C)(C)CF)CC3)CC12CC2` (single isomer, unassigned) [Compound C34], the DC50 was 25 to 1000 nM and the greatest degradation seen (Dmax) is 40 to 70%.
In the same order, the values of `COc1cc(-c2cn(C)c(=O)c(C)c2C)cc(OC)c1CN1CCN(Cc2ccc3c(c2)[C@@H](C)N(C(=O)/C(C#N)=C/C(C)(C)C)CC3)C2(CC2)C1` (single isomer, unassigned) [Compound C35, (E/Z)-2-(7-((7-(2,6-dimethoxy-4-(1,4,5-trimethyl-6-oxo-1,6-dihydropyridin-3-yl)benzyl)-4,7-diazaspiro[2.5]octan-4-yl)methyl)-1-methyl-1,2,3,4-tetrahydroisoquinoline-2-carbonyl)-4,4-dimethylpent-2-enenitrile] are < 1.25 nM and > 75%.
In the same order, the values of `COc1cc(-c2cn(C)c(=O)c(C)c2C)cc(OC)c1CN1CCN(Cc2ccc3c(c2)[C@H](C)N(C(=O)/C(C#N)=C/C(C)(C)C)CC3)C2(CC2)C1` (single isomer, unassigned) [Compound C36, (E/Z)-2-(7-((7-(2,6-dimethoxy-4-(1,4,5-trimethyl-6-oxo-1,6-dihydropyridin-3-yl)benzyl)-4,7-diazaspiro[2.5]octan-4-yl)methyl)-1-methyl-1,2,3,4-tetrahydroisoquinoline-2-carbonyl)-4,4-dimethylpent-2-enenitrile] are 10 to 25 nM and 40 to 70%.
As for `COc1cc(-c2cn(C)c(=O)c(C)c2C)cc(OC)c1CN1CCN(Cc2ccc3c(c2)[C@@H](C)N(C(=O)/C(C#N)=C/C2(OC)CC2)CC3)C2(CC2)C1` (single isomer, unassigned) [Compound C37, (E/Z)-2-(7-((7-(2,6-dimethoxy-4-(1,4,5-trimethyl-6-oxo-1,6-dihydropyridin-3-yl)benzyl)-4,7-diazaspiro[2.5]octan-4-yl)methyl)-1-methyl-1,2,3,4-tetrahydroisoquinoline-2-carbonyl)-3-(1-methoxycyclopropyl)acrylonitrile], the DC50 was < 1.25 nM and the Dmax was > 75%.
Regarding `COc1cc(-c2cn(C)c(=O)c(C)c2C)cc(OC)c1CN1CCN(Cc2ccc3c(c2)C(C)N(C(=O)/C(C#N)=C/C2(C)CCC(F)(F)CC2)CC3)C2(CC2)C1` (single isomer, unassigned) [Compound C38, (E/Z)-3-(4,4-difluoro-1-methylcyclohexyl)-2-(7-((7-(2,6-dimethoxy-4-(1,4,5-trimethyl-6-oxo-1,6-dihydropyridin-3-yl)benzyl)-4,7-diazaspiro[2.5]octan-4-yl)methyl)-1-methyl-1,2,3,4-tetrahydroisoquinoline-2-carbonyl)acrylonitrile], the DC50 lay within 1.25 to 10 nM and the Dmax lay within 70 to 75%.
On the same counts, the results for `COc1cc(-c2cn(C)c(=O)c(C)c2C)cc(OC)c1CN1CCN(Cc2ccc3c(c2)[C@@H](C)N(C(=O)/C(C#N)=C/C(C)(C)O)CC3)C2(CC2)C1` (single isomer, unassigned) [Compound C39, (E/Z)-2-(7-((7-(2,6-dimethoxy-4-(1,4,5-trimethyl-6-oxo-1,6-dihydropyridin-3-yl)benzyl)-4,7-diazaspiro[2.5]octan-4-yl)methyl)-1-methyl-1,2,3,4-tetrahydroisoquinoline-2-carbonyl)-4-hydroxy-4-methylpent-2-enenitrile] are < 1.25 nM and > 75%.
